Data from patent US20060008378A1, “Sterilization method” (priority 2004, published 2006).

Tested on: bacillus used as an index (biological-indicator)
Details: 15 g of 35% hydrogen peroxide solution vaporized in 3 minutes, about 0.8 m^3 isolator, peak about 1300 ppm, closed state until 1200 seconds
Procedure: In this Example, the above-mentioned injector 14 is controlled so that hydrogen peroxide solution is continuously dropped for 3 minutes at a flow rate of 5 g/min, and the dropped hydrogen peroxide solution changes to hydrogen peroxide vapor by flash evaporation in an evaporator 12 in an instant.

## OO [hydrogen peroxide vapor, hydrogen peroxide]
  effect of sterilization (culturing the biological-indicator after sterilization): multiplication of the bacillus used as an index is not recognized
